Reference: patent US5350681A, “Enzymatic membrane method for the synthesis and separation of peptides” (The Coca-Cola Company, priority 1992, dated 1994)

Settings: pH 5

chemical stability of L-phe-O-< over L-phe-OMe: seven times higher
stability of the ester (hydrolysis to L-phenylalanine): stable
Structure (SMILES): CC(C)OC(=O)[C@@H](N)Cc1ccccc1 [L-phe-O-<, L-phenylalanine isopropyl ester]
